Target: T1, human vasopressin V1b receptor (Homo sapiens, UniProt P47901)
T1 construct: expressed in transfected cells; host or cells: CHO-K1 (cell line hV1b-3H2_CHO), membrane preparation
T1 sequence (P47901 1-424): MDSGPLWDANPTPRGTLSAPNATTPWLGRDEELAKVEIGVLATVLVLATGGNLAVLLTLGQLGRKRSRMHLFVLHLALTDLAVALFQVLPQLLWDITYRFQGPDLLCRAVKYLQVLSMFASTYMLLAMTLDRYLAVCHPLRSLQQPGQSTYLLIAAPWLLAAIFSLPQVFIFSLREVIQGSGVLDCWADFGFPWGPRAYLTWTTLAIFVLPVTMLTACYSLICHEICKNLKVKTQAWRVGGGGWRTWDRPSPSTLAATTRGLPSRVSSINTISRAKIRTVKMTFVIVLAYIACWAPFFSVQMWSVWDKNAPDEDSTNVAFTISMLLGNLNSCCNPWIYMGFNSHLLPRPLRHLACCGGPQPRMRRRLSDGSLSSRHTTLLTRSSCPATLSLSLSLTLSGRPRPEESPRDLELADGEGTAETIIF
Test: Vasopressin V1b receptor binding assay
Details: membranes from CHO-K1 cells with stably expressed human V1b receptors; displacement of 1.5 nM 3H-AVP; read-out: V1b receptor affinity (affinity constant Ki)
Method: Vasopressin V1b Receptor Binding Assay:
The test substances were dissolved in a concentration of 10^−2 M in DMSO and further diluted to 5×10^−4 M to 5×10^−9 M in DMSO. This series of DMSO predilutions was diluted 1:10 with assay buffer. The substance concentration was again diluted 1:5 in the assay mixture (2% DMSO in the mixture).
The membrane pellet was again homogenized and centrifuged as described and then taken up in 50 mM Tris-HCl, pH 7.4, homogenized and stored in aliquots frozen in liquid nitrogen at −190° C.
The incubation buffer was: 50 mM Tris, 10 mM MgCl2, 0.1% BSA, pH 7.4. […] The nonspecific binding was determined with 1 uM AVP (Bachem #H1780). All determinations were carried out as triplicate determinations. After incubation (60 minutes at room temperature), the free radioligand was removed by vacuum filtration (Skatron cell harvester 7000) through Wathman GF/B glass fiber filter mats, and the filters were transferred into scintillation vials. The liquid scintillation measurement took place in a Tricarb model 2000 or 2200CA instrument (Packard). Conversion of the measured cpm into dpm was carried out with the aid of a standard quench series.
The binding parameters were calculated by nonlinear regression in SAS.
The above assay was used to measure the affinities of the compounds of the invention for the human vasopressin V1b receptor and to determine the affinity constants (Ki).

Q: Which Ki does the source give for `COc1ccc(C(C(=O)N2CCN(c3ccncc3)CC2)n2c(=O)n(S(=O)(=O)c3ccc(OC)cc3OC)c3ccc(Cl)cc32)cc1` (stereo not shown) [Example 1, 5-Chloro-1-(2,4-dimethoxybenzenesulfonyl)-3-[1-(4-methoxyphenyl)-2-oxo-2-(4-pyridin-4-ylpiperazin-1-yl)ethyl]-1,3-dihydrobenzimidazol-2-one] here?
A: The Ki was 100 to 500 nM.

Q: Which Ki does the source give for `O=C(C(c1ccccc1)n1c(=O)n(S(=O)(=O)c2ccco2)c2ccc(Cl)cc21)N1CCN(c2ccncc2)CC1` (stereo not shown) [Example 2, 5-Chloro-1-(furan-2-sulfonyl)-3-[2-oxo-1-phenyl-2-(4-pyridin-4-ylpiperazin-1-yl)ethyl]-1,3-dihydrobenzimidazol-2-one] here?
A: Its Ki is 100 to 500 nM.

Q: Which Ki does the source give for `CN1CCN(C2CCN(C(=O)C(c3ccccc3)n3c(=O)n(S(=O)(=O)c4cccc5cccnc45)c4ccc(Cl)cc43)CC2)CC1` (stereo not shown) [Example 3, 5-Chloro-3-{2-[4-(4-methylpiperazin-1-yl)piperidin-1-yl]-2-oxo-1-phenyl-ethyl}-1-(quinoline-8-sulfonyl)-1,3-dihydrobenzimidazol-2-one] here?
A: The Ki was 500 to 10000 nM.

Q: How did the Ki turn out when `COc1ccc(S(=O)(=O)n2c(=O)n(C(C(=O)N3CCN(c4ccncc4)CC3)c3ccccc3)c3cc(I)ccc32)cc1` (stereo not shown) [Example 4, 5-Iodo-1-(4-methoxybenzenesulfonyl)-3-[2-oxo-1-phenyl-2-(4-pyridin-4-ylpiperazin-1-yl)ethyl]-1,3-dihydrobenzimidazol-2-one] was run?
A: Its Ki is < 100 nM.

Q: How did the Ki turn out when `O=C(C(c1ccccc1)n1c(=O)n(S(=O)(=O)c2ccsc2)c2ccc(Cl)cc21)N1CCN(c2ccncc2)CC1` (stereo not shown) [Example 5, 5-Chloro-3-[2-oxo-1-phenyl-2-(4-pyridin-4-ylpiperazin-1-yl)ethyl]-1-(thiophene-3-sulfonyl)-1,3-dihydrobenzimidazol-2-one] was run?
A: The Ki was 100 to 500 nM.

Q: How did the Ki turn out when `COc1ccc(S(=O)(=O)n2c(=O)n(C(C(=O)N3CCN(c4ccncc4)CC3)c3ccccc3OC)c3cc(Cl)ccc32)cc1` (stereo not shown) [Example 6, 5-Chloro-1-(4-methoxybenzenesulfonyl)-3-[1-(2-methoxyphenyl)-2-oxo-2-(4-pyridin-4-ylpiperazin-1-yl)ethyl]-1,3-dihydrobenzimidazol-2-one] was run?
A: Its Ki is 100 to 500 nM.

Q: For `O=C(C(c1ccccc1)n1c(=O)n(S(=O)(=O)c2ccc(Cl)s2)c2ccc(Cl)cc21)N1CCN(c2ccncc2)CC1` (stereo not shown) [Example 7, 5-Chloro-1-(5-chlorothiophene-2-sulfonyl)-3-[2-oxo-1-phenyl-2-(4-pyridin-4-ylpiperazin-1-yl)ethyl]-1,3-dihydrobenzimidazol-2-one], which Ki is on record?
A: The Ki was 500 to 10000 nM.

Q: Which Ki does the source give for `COc1ccc(S(=O)(=O)n2c(=O)n(C(C(=O)N3CCN(C4CCN(C)CC4)CC3)c3ccccc3OC)c3cc(Cl)ccc32)c(OC)c1` (stereo not shown) [Example 8, 5-Chloro-1-(2,4-dimethoxybenzenesulfonyl)-3-{1-(2-methoxyphenyl)-2-[4-(1-methylpiperidin-4-yl)piperazin-1-yl]-2-oxoethyl}-1,3-dihydrobenzimidazol-2-one] here?
A: Its Ki is 500 to 10000 nM.

Q: `COc1ccc(S(=O)(=O)n2c(=O)n(C(C(=O)N3CCN(C4CCN(C)CC4)CC3)c3ccccc3OC)c3cc(Cl)ccc32)cc1` (stereo not shown) [Example 9, 5-Chloro-1-(4-methoxybenzenesulfonyl)-3-{1-(2-methoxyphenyl)-2-[4-(1-methylpiperidin-4-yl)piperazin-1-yl]-2-oxoethyl}-1,3-dihydrobenzimidazol-2-one] was tested. Which Ki did it give?
A: The Ki was 500 to 10000 nM.

Q: With `COc1ccc(S(=O)(=O)n2c(=O)n(C(C(=O)N3CCN(C4CCN(C)CC4)CC3)c3ccccc3)c3cc(C#N)ccc32)c(OC)c1` (stereo not shown) [Example 10, 1-(2,4-Dimethoxybenzenesulfonyl)-3-{2-[4-(1-methylpiperidin-4-yl)piperazin-1-yl]-2-oxo-1-phenylethyl}-2-oxo-2,3-dihydro-1H-benzimidazole-5-carbonitrile] as the molecule, how does the Ki read?
A: The Ki was 500 to 10000 nM.

Q: How did the Ki turn out when `COc1ccc(S(=O)(=O)n2c(=O)n(C(C(=O)N3CCN(C4CCN(C)CC4)CC3)c3ccccc3)c3cc(C#N)ccc32)cc1` (stereo not shown) [Example 11, 1-(4-Methoxybenzenesulfonyl)-3-{2-[4-(1-methylpiperidin-4-yl)piperazin-1-yl]-2-oxo-1-phenylethyl}-2-oxo-2,3-dihydro-1H-benzimidazole-5-carbonitrile] was run?
A: Its Ki is 500 to 10000 nM.

Q: With `COc1ccc(S(=O)(=O)n2c(=O)n(C(C(=O)N3CCN(c4ccncc4)CC3)c3ccccc3OC)c3cc(Cl)ccc32)c(OC)c1` (stereo not shown) [Example 12, 5-Chloro-1-(2,4-dimethoxybenzenesulfonyl)-3-[1-(2-methoxyphenyl)-2-oxo-2-(4-pyridin-4-ylpiperazin-1-yl)ethyl]-1,3-dihydrobenzimidazol-2-one] as the molecule, how does the Ki read?
A: The Ki was 500 to 10000 nM.

Q: With `COc1ccccc1C(C(=O)N1CCN(c2ccncc2)CC1)n1c(=O)n(S(=O)(=O)c2cccc3cccnc23)c2ccc(Cl)cc21` (stereo not shown) [Example 13, 5-Chloro-3-[1-(2-methoxyphenyl)-2-oxo-2-(4-pyridin-4-ylpiperazin-1-yl)-ethyl]-1-(quinoline-8-sulfonyl)-1,3-dihydrobenzimidazol-2-one] as the molecule, how does the Ki read?
A: Its Ki is 500 to 10000 nM.

Q: With `COc1ccccc1C(C(=O)N1CCN(c2ccncc2)CC1)n1c(=O)n(S(=O)(=O)c2ccc(C#N)cc2)c2ccc(Cl)cc21` (stereo not shown) [Example 14, 4-{5-Chloro-3-[1-(2-methoxyphenyl)-2-oxo-2-(4-pyridin-4-ylpiperazin-1-yl)ethyl]-2-oxo-2,3-dihydrobenzimidazole-1-sulfonyl}benzonitrile] as the molecule, how does the Ki read?
A: Its Ki is 500 to 10000 nM.

Q: How did the Ki turn out when `COc1ccccc1C(C(=O)N1CCN(C2CCN(C)CC2)CC1)n1c(=O)n(S(=O)(=O)c2cccc3cccnc23)c2ccc(Cl)cc21` (stereo not shown) [Example 15, 5-Chloro-3-{1-(2-methoxyphenyl)-2-[4-(1-methylpiperidin-4-yl)piperazin-1-yl]-2-oxoethyl}-1-(quinoline-8-sulfonyl)-1,3-dihydrobenzimidazol-2-one] was run?
A: The Ki was 500 to 10000 nM.

Q: Which Ki does the source give for `COc1ccccc1C(C(=O)N1CCN(C2CCN(C)CC2)CC1)n1c(=O)n(S(=O)(=O)c2ccc(C#N)cc2)c2ccc(Cl)cc21` (stereo not shown) [Example 16, 4-(5-Chloro-3-{1-(2-methoxyphenyl)-2-[4-(1-methylpiperidin-4-yl)piperazin-1-yl]-2-oxoethyl}-2-oxo-2,3-dihydrobenzoimidazole-1-sulfonyl)benzonitrile] here?
A: The Ki was 500 to 10000 nM.

Q: With `CCCN1CCN(C2CCN(C(=O)C(c3ccccc3)n3c(=O)n(S(=O)(=O)c4ccc(OC)cc4)c4ccc(Cl)cc43)CC2)CC1` (stereo not shown) [Example 17, 5-Chloro-1-(4-methoxybenzenesulfonyl)-3-{2-oxo-1-phenyl-2-[4-(4-propylpiperazin-1-yl)piperidin-1-yl]ethyl}-1,3-dihydrobenzimidazol-2-one] as the molecule, how does the Ki read?
A: The Ki was < 100 nM.

Q: How did the Ki turn out when `COc1ccc(S(=O)(=O)n2c(=O)n(C(C(=O)N3CCN(C4CCN(C)CC4)CC3)c3cccc(OC)c3)c3cc(Cl)ccc32)cc1` (stereo not shown) [Example 19, 5-Chloro-1-(4-methoxybenzenesulfonyl)-3-{1-(3-methoxyphenyl)-2-[4-(1-methylpiperidin-4-yl)piperazin-1-yl]-2-oxo-ethyl}-1,3-dihydrobenzimidazol-2-one] was run?
A: Its Ki is 100 to 500 nM.

Q: With `COc1ccc(S(=O)(=O)n2c(=O)n(C(C(=O)N3CCN(c4ccncc4)CC3)c3cccc(OC)c3)c3cc(Cl)ccc32)cc1` (stereo not shown) [Example 20, 5-Chloro-1-(4-methoxybenzenesulfonyl)-3-[1-(3-methoxyphenyl)-2-oxo-2-(4-pyridin-4-ylpiperazin-1-yl)ethyl]-1,3-dihydrobenzimidazol-2-one] as the molecule, how does the Ki read?
A: The Ki was < 100 nM.

Q: With `COc1cccc(C(C(=O)N2CCN(c3ccncc3)CC2)n2c(=O)n(S(=O)(=O)c3ccc(OC)cc3OC)c3ccc(Cl)cc32)c1` (stereo not shown) [Example 21, 5-Chloro-1-(2,4-dimethoxybenzenesulfonyl)-3-[1-(3-methoxyphenyl)-2-oxo-2-(4-pyridin-4-ylpiperazin-1-yl)-ethyl]-1,3-dihydrobenzimidazol-2-one] as the molecule, how does the Ki read?
A: The Ki was 100 to 500 nM.

Q: `COc1cccc(C(C(=O)N2CCN(C3CCN(C)CC3)CC2)n2c(=O)n(S(=O)(=O)c3ccc(C#N)cc3)c3ccc(Cl)cc32)c1` (stereo not shown) [Example 22, 4-(5-Chloro-3-{1-(3-methoxyphenyl)-2-[4-(1-methylpiperidin-4-yl)piperazin-1-yl]-2-oxoethyl}-2-oxo-2,3-dihydrobenzimidazol-1-sulfonyl)benzonitrile] was tested. Which Ki did it give?
A: The Ki was 100 to 500 nM.

Q: How did the Ki turn out when `CN1CCC(N2CCN(C(=O)C(c3ccccc3)n3c(=O)n(S(=O)(=O)c4ccc(C#N)cc4)c4ccc(C#N)cc43)CC2)CC1` (stereo not shown) [Example 23, 1-(4-Cyanobenzenesulfonyl)-3-{2-[4-(1-methylpiperidin-4-yl)piperazin-1-yl]-2-oxo-1-phenylethyl}-2-oxo-2,3-dihydro-1H-benzimidazole-5-carbonitrile] was run?
A: Its Ki is 500 to 10000 nM.

From patent US8791148B2, “Substituted benzimidazolone derivatives, medicaments comprising them and their use” (AbbVie Deutschland GmbH & Co. KG, priority 2006, dated 2014)
